In patent US9834537B2, “Compounds as chloride channel blocking agent” (Korea Institute of Science and Technology, priority 2013, dated 2017):

Target: calcium ion-activated chloride channel (Xenopus laevis, UniProt B5SVV6)
Assay: Patch clamp method: two-electrode voltage clamp recording on Xenopus laevis eggs, calcium-dependent chloride channel blocking activity
Assay type: cell-based
Method: Meanwhile, with regard to the novel compound represented by formula 1 according to the present invention, calcium-dependent chloride channel blocking activity was assessed by a patch clamp method according to the following experimental examples. Eggs of African Xenopus laevis were collected through surgical operation, immersed in a Barth's solution [88 mM NaCl, 1 mM KCl, 2.4 mM NaHCO3, 10 mM HEPES, 0.82 mM MgSO4, 0.33 mM Ca(NO3)2, 0.91 mM CaCl2 (all of which were purchased from Sigma Co.); 10 units/mL peniciline, and streptomycin (purchased from Gibco Co.)], and cultured in an incubator at a constant temperature of 18° C. Such prepared eggs were treated using 10 μM ionomycin (Sigma) for 30 minutes. A recording solution (96 mM NaCl, 2 mM KCl, 10 mM HEPES, 3 mM NaOH, 2 mM MgCl2, 0.5 mM EGTA, Sigma) was prepared and the eggs treated with ionomycin were rinsed using the prepared recording solution. Further, the eggs, after treating with 1 μM thapsigargin (Sigma) for 2 hours, were rinsed again using the recording solution to prepare eggs for recording. Next, an intracellular solution was prepared by adding 0.5 mM EGTA and 1 μM chelerythrine (Sigma) to 1 M KCl solution, then, charged in a glass micro-electrode. One of the prepared eggs was placed on a chamber and two micro-electrodes were stuck into both sides of the egg while dripping the recording solution over the egg. According to a protocol corresponding to purposes for experiments, two-electrode voltage clamp recording was executed to measure an electrical current.

[1] = calcium ion-activated chloride channel, Xenopus laevis eggs, two-electrode voltage clamp
[2] = Table 2 upper part, naphthyl compounds of formula 1b (scaffold drawing 37; * = position of naphthyl attachment)

Chain of calcium ion-activated chloride channel (B5SVV6 entry or part of it): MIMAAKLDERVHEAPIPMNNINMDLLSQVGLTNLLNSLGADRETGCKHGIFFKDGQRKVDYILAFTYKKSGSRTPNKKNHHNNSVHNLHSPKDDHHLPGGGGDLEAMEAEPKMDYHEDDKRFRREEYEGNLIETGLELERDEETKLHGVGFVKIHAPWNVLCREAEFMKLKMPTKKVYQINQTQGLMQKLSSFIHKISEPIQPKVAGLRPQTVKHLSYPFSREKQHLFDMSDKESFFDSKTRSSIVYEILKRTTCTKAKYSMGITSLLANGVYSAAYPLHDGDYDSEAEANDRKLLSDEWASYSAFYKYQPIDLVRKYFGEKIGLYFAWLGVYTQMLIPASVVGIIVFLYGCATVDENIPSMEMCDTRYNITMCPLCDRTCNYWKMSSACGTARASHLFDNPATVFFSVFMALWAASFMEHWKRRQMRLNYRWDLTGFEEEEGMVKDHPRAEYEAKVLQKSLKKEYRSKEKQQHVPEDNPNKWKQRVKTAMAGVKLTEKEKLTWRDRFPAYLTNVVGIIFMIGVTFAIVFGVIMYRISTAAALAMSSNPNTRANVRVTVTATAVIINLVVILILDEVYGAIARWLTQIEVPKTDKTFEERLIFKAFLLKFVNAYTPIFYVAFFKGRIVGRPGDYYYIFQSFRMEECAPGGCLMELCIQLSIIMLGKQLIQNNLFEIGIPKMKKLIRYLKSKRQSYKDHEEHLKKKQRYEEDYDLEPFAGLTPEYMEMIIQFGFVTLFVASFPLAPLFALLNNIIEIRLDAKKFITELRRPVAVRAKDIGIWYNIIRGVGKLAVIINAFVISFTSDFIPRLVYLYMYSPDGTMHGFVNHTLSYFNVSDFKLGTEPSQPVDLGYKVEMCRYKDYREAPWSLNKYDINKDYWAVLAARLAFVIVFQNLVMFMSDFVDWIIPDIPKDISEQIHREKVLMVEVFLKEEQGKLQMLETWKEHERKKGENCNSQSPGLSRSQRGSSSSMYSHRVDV

Molecule	IC50 [1] [µM]	IC50 [2] [µM]	IC50 (Table 2 lower part, comparison phenyl anthranilic acid compounds of Korean Patent Registration No. 892591 (scaffold drawing 38)) [µM]
N-naphthyl-3-nitroanthranilic acid [Compound No. 28]	54		
COc1ccc2cccc(Nc3ccc([N+](=O)[O-])cc3C(=O)O)c2c1 [Compound No. 50, N-((7-methoxy)naphthyl)-5-nitroanthranilic acid]	3.4	3.4	
O=C(O)c1cc([N+](=O)[O-])ccc1Nc1ccc(I)c2ccccc12 [Compound No. 44, N-((4-iodo)naphthyl)-5-nitroanthranilic acid]	1.2		
O=C(O)c1cc([N+](=O)[O-])ccc1Nc1ccccc1 [drawing 38 R1=5-NO2 R3=H, reference compound]			42.5
COc1ccc2ccccc2c1Nc1ccc([N+](=O)[O-])cc1C(=O)O [Compound No. 45, N-((2-methoxy)naphthyl)-5-nitroanthranilic acid]	9.1	9.1	
O=C(O)c1cc([N+](=O)[O-])ccc1Nc1ccc(Br)c2ccccc12 [Compound No. 43, N-((4-bromo)naphthyl)-5-nitroanthranilic acid]	1.5	1.5	
COc1ccc(Nc2ccc([N+](=O)[O-])cc2C(=O)O)c2ccccc12 [Compound No. 47, N-((4-methoxy)naphthyl)-5-nitroanthranilic acid]	2.27	2.27	
O=C(O)c1cc([N+](=O)[O-])ccc1Nc1cccc2ccccc12 [Compound No. 40, N-naphthyl-5-nitroanthranilic acid]	5	5	
O=C(O)c1ccc([N+](=O)[O-])cc1Nc1ccc(Br)c2ccccc12 [Compound No. 34, N-((4-bromo)naphthyl)-4-nitroanthranilic acid]	10.1		
O=C(O)c1ccc(C(F)(F)F)cc1Nc1ccc(Cl)c2ccccc12 [Compound No. 66, N-((4-chloro)naphthyl)-4-trifluoromethylanthranilic acid]	5.7		
O=C(O)c1cc([N+](=O)[O-])ccc1Nc1ccc(Cl)c2ccccc12 [Compound No. 42, N-((4-chloro)naphthyl)-5-nitroanthranilic acid]	8		
N-naphthyl-4-trifluoromethylanthranilic acid [Compound No. 65]	54		
O=C(O)c1c(Nc2ccc(Br)c3ccccc23)cccc1[N+](=O)[O-] [Compound No. 70, N-((4-bromo)naphthyl)-6-nitroanthranilic acid]	8.6		
COc1ccc(Nc2cc([N+](=O)[O-])ccc2C(=O)O)c2ccccc12 [Compound No. 36, N-((4-methoxy)naphthyl)-4-nitroanthranilic acid]	15.2	15.2	
COc1cccc2c(Nc3ccc([N+](=O)[O-])cc3C(=O)O)cccc12 [Compound No. 48, N-((5-methoxy)naphthyl)-5-nitroanthranilic acid]	9.2	9.2	
COc1ccc2c(Nc3ccc([N+](=O)[O-])cc3C(=O)O)cccc2c1 [Compound No. 49, N-((6-methoxy)naphthyl)-5-nitroanthranilic acid]	1.14	1.14	
O=C(O)c1ccc([N+](=O)[O-])cc1Nc1cccc2ccccc12 [Compound No. 31, N-naphthyl-4-nitroanthranilic acid]	8.5		
O=C(O)c1ccc([N+](=O)[O-])cc1Nc1ccc(Cl)c2ccccc12 [Compound No. 33, N-((4-chloro)naphthyl)-4-nitroanthranilic acid]	4.8	4.8	
O=C(O)c1cc([N+](=O)[O-])ccc1Nc1ccc(F)c2ccccc12 [Compound No. 41, N-((4-fluoro)naphthyl)-5-nitroanthranilic acid]	3		
O=C(O)c1ccc([N+](=O)[O-])cc1Nc1ccc([N+](=O)[O-])c2ccccc12 [Compound No. 35, N-((4-nitro)naphthyl)-4-nitroanthranilic acid]	21.6		
COc1cc(Nc2ccc([N+](=O)[O-])cc2C(=O)O)c2ccccc2c1 [Compound No. 46, N-((3-methoxy)naphthyl)-5-nitroanthranilic acid]	1.8	1.8	
COc1cccc2cccc(Nc3ccc([N+](=O)[O-])cc3C(=O)O)c12 [Compound No. 51, N-((8-methoxy)naphthyl)-5-nitroanthranilic acid]	8.6	8.6	
O=C(O)c1cccc([N+](=O)[O-])c1Nc1ccc(Cl)c2ccccc12 [Compound No. 29, N-((4-chloro)naphthyl)-3-nitroanthranilic acid]	16.6		
